Laboratory results as given in US6277847A, “Herbicidal isoindolinonyl-and 3,4-dihydroisoquinolonyl-substituted heterocycles” (FMC Corporation, priority 2000, dated 2001).

Tests used:
Format in all cases: in vivo
[1] = test system: soybean (Glycine max -- var. Winchester); assay: pre-emergence herbicidal activity, soybean; conditions: 1 kg/Ha, about fourteen days, read-out: pre-emergence herbicidal activity (% control) SOY
Protocol: (§1) This example sets forth the methods of herbicidal testing conducted on the specific compounds set forth below. Specifically, the compounds referenced below were tested for pre- and post-emergence herbicidal activity using a variety of crops and weeds. The test plants include, but are not limited to, soybean (Glycine max -- var. Winchester), field corn (Zea mays var. Pioneer 3732), wheat (Triticum aestivum var. Lew), morningglory (Ipomea lacunosa or Ipomea hederacea), velvetleaf (Abutilon theophrasti), green foxtail (Setaria viridis), Johnsongrass (Sorghum halepense), blackgrass (Aloepecurus myosuroides), common chickweed (Stellaria media), and common cocklebur (Xanthium strumarium L.).
(§2) In the post-emergence test, seeds of the plant species named above were planted in flats containing the appropriate soil mixture where they were maintained to allow the seeds to germinate. When the plants in these flats reached the proper stage of growth, flats for the pre-emergence tests were planted in a like manner. The flats containing the post-emergence and pre-emergence test plant species were then sprayed with an appropriately concentrated water/acetone solution of test compound. Once treated the flats were maintained, along with untreated controls, for about fourteen days. All treated plants were then examined for phytotoxicity, which was expressed as percent control where 0 is no effect and 100 is complete control. Effective rates of application for the compounds of the present invention range from 0.001 to 3 kg/ha, more likely from […] to 1 Kg/ha.
(§3) Herbicidal activity data at selected application rates are in Tables 4 and 5. The test compounds are identified by numbers correspond to those in Table 1.
(§4) Rate of application of test compound is 1 kg/Ha
(§5) SOY is soybean, WHT is wheat, CRN is corn, ABUTH is velvetleaf, IPOSS is
(§6) morningglory, STEME is chickweed, XANPE is cocklebur, ALOMY is blackgrass, […]

[2] = test system: wheat (Triticum aestivum var. Lew); assay: pre-emergence herbicidal activity, wheat; conditions: 1 kg/Ha, about fourteen days, read-out: pre-emergence herbicidal activity (% control) WHT
Protocol: as §1, §2, §3, §4, §5, §6

[3] = test system: field corn (Zea mays var. Pioneer 3732); assay: pre-emergence herbicidal activity, corn; conditions: 1 kg/Ha, about fourteen days, read-out: pre-emergence herbicidal activity (% control) CRN
Protocol: as §1, §2, §3, §4, §5, §6

[4] = test system: velvetleaf (Abutilon theophrasti); assay: pre-emergence herbicidal activity, velvetleaf; conditions: 1 kg/Ha, about fourteen days, read-out: pre-emergence herbicidal activity (% control) ABUTH
Protocol: as §1, §2, §3, §4, §5, §6

[5] = test system: morningglory (Ipomea lacunosa or Ipomea hederacea); assay: pre-emergence herbicidal activity, morningglory; conditions: Ipomoea, 1 kg/Ha, about fourteen days, read-out: pre-emergence herbicidal activity (% control) IPOSS
Protocol: as §1, §2, §3, §4, §5, §6

[6] = test system: common chickweed (Stellaria media); assay: pre-emergence herbicidal activity, chickweed; conditions: 1 kg/Ha, about fourteen days, read-out: pre-emergence herbicidal activity (% control) STEME
Protocol: as §1, §2, §3, §4, §5, §6

[7] = test system: common cocklebur (Xanthium strumarium L.); assay: pre-emergence herbicidal activity, cocklebur; conditions: 1 kg/Ha, about fourteen days, read-out: pre-emergence herbicidal activity (% control) XANPE
Protocol: as §1, §2, §3, §4, §5, §6

[8] = test system: green foxtail (Setaria viridis); assay: pre-emergence herbicidal activity, green foxtail; conditions: 1 kg/Ha, about fourteen days, read-out: pre-emergence herbicidal activity (% control) SETVI
Protocol: as §1, §2, §3, §4, §5, §6

[9] = test system: Johnsongrass (Sorghum halepense); assay: pre-emergence herbicidal activity, johnsongrass; conditions: 1 kg/Ha, about fourteen days, read-out: pre-emergence herbicidal activity (% control) SORHA
Protocol: as §1, §2, §3, §4, §5, §6

[10] = test system: soybean (Glycine max -- var. Winchester); assay: post-emergence herbicidal activity, soybean; conditions: 1 Kg/Ha, about fourteen days, read-out: post-emergence herbicidal activity (% control) SOY
Protocol: as §1, §2, §3, §5
(§7) morningglory, STEME is chickweed, XANPE is cocklebur, ALOMY is blackgrass,
(§8) Rate of application of test compound is 1 Kg/Ha. The definitions as shown under Table 4 apply to Table 5.

[11] = test system: wheat (Triticum aestivum var. Lew); assay: post-emergence herbicidal activity, wheat; conditions: 1 Kg/Ha, about fourteen days, read-out: post-emergence herbicidal activity (% control) WHT
Protocol: as §1, §2, §3, §5, §7, §8

[12] = test system: field corn (Zea mays var. Pioneer 3732); assay: post-emergence herbicidal activity, corn; conditions: 1 Kg/Ha, about fourteen days, read-out: post-emergence herbicidal activity (% control) CRN
Protocol: as §1, §2, §3, §5, §7, §8

[13] = test system: velvetleaf (Abutilon theophrasti); assay: post-emergence herbicidal activity, velvetleaf; conditions: 1 Kg/Ha, about fourteen days, read-out: post-emergence herbicidal activity (% control) ABUTH
Protocol: as §1, §2, §3, §5, §7, §8

[14] = test system: morningglory (Ipomea lacunosa or Ipomea hederacea); assay: post-emergence herbicidal activity, morningglory; conditions: Ipomoea, 1 Kg/Ha, about fourteen days, read-out: post-emergence herbicidal activity (% control) IPOSS
Protocol: as §1, §2, §3, §5, §7, §8

[15] = test system: common chickweed (Stellaria media); assay: post-emergence herbicidal activity, chickweed; conditions: 1 Kg/Ha, about fourteen days, read-out: post-emergence herbicidal activity (% control) STEME
Protocol: as §1, §2, §3, §5, §7, §8

[16] = test system: common cocklebur (Xanthium strumarium L.); assay: post-emergence herbicidal activity, cocklebur; conditions: 1 Kg/Ha, about fourteen days, read-out: post-emergence herbicidal activity (% control) XANPE
Protocol: as §1, §2, §3, §5, §7, §8

[17] = test system: green foxtail (Setaria viridis); assay: post-emergence herbicidal activity, green foxtail; conditions: 1 Kg/Ha, about fourteen days, read-out: post-emergence herbicidal activity (% control) SETVI
Protocol: as §1, §2, §3, §5, §7, §8

[18] = test system: Johnsongrass (Sorghum halepense); assay: post-emergence herbicidal activity, johnsongrass; conditions: 1 Kg/Ha, about fourteen days, read-out: post-emergence herbicidal activity (% control) SORHA
Protocol: as §1, §2, §3, §5, §7, §8

[19] = test system: blackgrass (Aloepecurus myosuroides); assay: pre-emergence herbicidal activity, blackgrass; conditions: Alopecurus myosuroides, 1 kg/Ha, about fourteen days, read-out: pre-emergence herbicidal activity (% control) ALOMY
Protocol: as §1, §2, §3, §4, §5, §6

[20] = test system: blackgrass (Aloepecurus myosuroides); assay: post-emergence herbicidal activity, blackgrass; conditions: Alopecurus myosuroides, 1 Kg/Ha, about fourteen days, read-out: post-emergence herbicidal activity (% control) ALOMY
Protocol: as §1, §2, §3, §5, §7, §8

SMILES | activity at 1000 g/ha [1] [%] | activity at 1000 g/ha [2] [%] | activity at 1000 g/ha [3] [%] | activity at 1000 g/ha [4] [%] | activity at 1000 g/ha [5] [%] | activity at 1000 g/ha [6] [%] | activity at 1000 g/ha [7] [%] | activity at 1000 g/ha [8] [%] | activity at 1000 g/ha [9] [%] | activity at 1000 g/ha [10] [%] | activity at 1000 g/ha [11] [%] | activity at 1000 g/ha [12] [%] | activity at 1000 g/ha [13] [%] | activity at 1000 g/ha [14] [%] | activity at 1000 g/ha [15] [%] | activity at 1000 g/ha [16] [%] | activity at 1000 g/ha [17] [%] | activity at 1000 g/ha [18] [%] | activity at 1000 g/ha [19] [%] | activity at 1000 g/ha [20] [%]
CCON1Cc2c(-n3c(=O)cc(C(F)(F)F)n(C)c3=O)ccc(Cl)c2C1=O [Compound 19] | 100 | 100 | 100 | 100 | 100 | 100 | 100 | 100 | 100 | 100 | 100 | 100 | 100 | 100 | 100 | 100 | 100 | 100 | – | –
C=CCN1Cc2c(-n3c(=O)cc(C(F)(F)F)n(C)c3=O)ccc(Cl)c2C1=O [Compound 20] | 100 | 100 | 100 | 100 | 100 | 100 | 100 | 100 | 100 | 100 | 100 | 100 | 100 | 100 | 100 | 100 | 100 | 100 | – | –
CON1Cc2c(-n3c(=O)cc(C(F)(F)F)n(C)c3=O)ccc(Cl)c2C1=O [Compound 21] | 100 | 100 | 100 | 100 | 100 | 100 | 100 | 100 | 100 | 100 | 80 | 80 | 100 | 100 | 100 | 95 | 100 | 100 | – | –
CCN1Cc2c(-n3c(=O)cc(C(F)(F)F)n(C)c3=O)ccc(Cl)c2C1=O [Compound 22] | 100 | 100 | 100 | 100 | 100 | 100 | 100 | 100 | 100 | 100 | 100 | 100 | 100 | 100 | 100 | 100 | 100 | 100 | – | –
CCn1c(C(F)(F)F)cc(=O)n(-c2ccc(Cl)c3c2CN(C(C)C)C3=O)c1=O [Compound 71] | 100 | 100 | 100 | 100 | 100 | 100 | 100 | 100 | – | 90 | 80 | 90 | 95 | 95 | 100 | 70 | 100 | – | 90 | 100
